Source: patent US20230339939A1 (Bayer Aktiengesellschaft, priority 2020, published 2023)

How the values were obtained:
[1] = molecular target: CSNK1A1 (Homo sapiens (Human), UniProt P48729); assay: CSNK1A1 Assay 1 (ADP-Glo, 1 μM ATP, substrate Btn-Ahx-[…]); format: biochemical; settings: median, comparison compounds of WO 2016/120196 (Table 4), read-out: CSNK1A1 Assay 1 IC50 [mol/l] (median)
Method: CSNK1A1-inhibitory activity of compounds of the present invention in presence of 1 μM adenosine-tri-phosphate (ATP) was quantified employing the CSNK1A1 assay as described in the following paragraphs. In essence, the enzyme activity is measured by quantification of the adenosine-di-phosphate (ADP), which is generated as a co-product of the enzyme reaction, via the “ADP-Glo™ Kinase Assay” kit from the company Promega. This detection system works as follows: In a first step the ATP not consumed in the kinase reaction is quantitatively converted to cAMP employing an adenylate cyclase (“ADP-Glo-reagent”), then the adenylate cyclase is stopped and the ADP generated in the kinase reaction converted to ATP which generates in a luciferase-based reaction a glow-luminescence signal (“Kinase Detection Reagent”).
Recombinant fusion protein of N-terminal Glutathion-S-Transferase (GST) and full-length human CSNK1A1, expressed by baculovirus infected insect cells and purified via Glutathion affinity chromatography, was purchased from Life Technologies (product no. PV4174) and used as enzyme. As substrate for the kinase reaction the biotinylated peptide Btn-Ahx-[…] (C-terminus in amide form) was used which can be purchased e.g. from the company Biosyntan (Berlin-Buch, Germany). […]

[2] = molecular target: wild-type Epidermal Growth Factor Receptor (EGFR) (Homo sapiens (Human), UniProt P00533); assay: WT-EGFR Kinase Assay (TR-FRET, 2 mM ATP); format: biochemical; settings: read-out: EGFR Wildtype-2 mM ATP IC50 [mol/l] (median), comparison compounds of WO 2016/120196 (Table 4)
Description: Inhibitory activity of compounds of the present invention against wild-type Epidermal Growth Factor Receptor (EGFR) was quantified employing the TR-FRET based EGFR assay as described in the following paragraphs.
Recombinant fusion protein of N-terminal Glutathion-S-Transferase (GST) and a fragment of human EGFR (amino acids R669 to A1210), expressed in Sf9 insect cells and purified via affinity chromatography using Glutathion Sepharose as described above, was used as kinase. As substrate for the kinase reaction the biotinylated peptide biotin-Ahx-[…] (C-terminus in amide form) was used which can be purchased e.g. form the company Biosynthan GmbH (Berlin-Buch, Germany).
For the assay 50 nl of a 100 fold concentrated solution of the test compound in DMSO was pipetted into either a black low volume 384 well microtiter plate or a black 1536 well microtiter plate (both Greiner Bio-One, Frickenhausen, Germany), 2 μL of a solution of EGFR in aqueous assay buffer [50 mM Hepes pH 7.0, 10 mM MgCl2, 1 mM dithiothreitol, 0.5 mM EGTA, 0.3 mM activated sodium ortho-vanadate, 0.005% (w/v) bovine serum albumin, 0.005% (v/v) Tween-20] were added and the mixture was incubated for 15 min at 22° C. to allow pre-binding of the test compounds to the enzyme before the start of the kinase reaction. […] The concentration of EGFR was adjusted depending of the activity of the enzyme lot and was chosen appropriate to have the assay in the linear range, typical concentration was 7.6 pg/μL. The reaction was stopped by the addition of 3 μL of a solution of HTRF detection reagents (83.3 nM streptavidine-XL665 [Cisbio Bioassays, Codolet, France] and 1.67 nM PT66-Tb-Cryptate, a terbium-cryptate labelled anti-phospho-tyrosine antibody from Cisbio Bioassays [instead of the PT66-Tb-cryptate PT66-Eu-Chelate from Perkin Elmer can also be used]) in an aqueous EDTA-solution (133.3 mM EDTA, 0.2% (w/v) bovine serum albumin in 50 mM HEPES pH 7.5).
The resulting mixture was incubated 1 h at 22° C. to allow the binding of the biotinylated phosphorylated peptide to the streptavidine-XL665 and the PT66-Tb-Cryptate. Subsequently the amount of phosphorylated substrate was evaluated by measurement of the resonance energy transfer from the PT66-Tb-Cryptate to the streptavidine-XL665. Therefore, the fluorescence emissions at 620 nm and 665 nm after excitation at 337 nm were measured in a HTRF reader, e.g. a Pherastar (BMG Labtechnologies, Offenburg, Germany) or a Viewlux (Perkin-Elmer). The ratio of the emissions at 665 nm and at 622 nm was taken as the measure for the amount of phosphorylated substrate.

CSNK1A1, sequence (P48729 whole entry): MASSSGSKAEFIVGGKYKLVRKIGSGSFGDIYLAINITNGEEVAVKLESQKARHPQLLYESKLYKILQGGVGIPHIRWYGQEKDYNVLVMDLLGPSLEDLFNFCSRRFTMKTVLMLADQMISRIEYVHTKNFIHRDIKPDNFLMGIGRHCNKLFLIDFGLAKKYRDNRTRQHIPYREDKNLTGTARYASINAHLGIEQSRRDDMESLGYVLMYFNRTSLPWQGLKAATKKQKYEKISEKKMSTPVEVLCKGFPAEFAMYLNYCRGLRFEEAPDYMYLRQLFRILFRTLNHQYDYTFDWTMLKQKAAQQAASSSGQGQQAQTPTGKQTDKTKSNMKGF

Q: With “2-(4-fluorophenyl)-N-{4-[7-(2-oxopyrrolidin-1-yl)-3-(pyridin-2-yl)-1H-pyrrolo[3,2-b]pyridin-2-yl]pyridin-2-yl}acetamide [Example 40]” as the substance, how does the IC50 [1] read?
A: Its IC50 is 24.1 nM.

Q: What about the IC50 [2] of the same substance?
A: Its IC50 is 85.5 nM.
